# From ChEMBL document CHEMBL4765316, “Discovery of novel resorcinol diphenyl ether-based PROTAC-like molecules as dual inhibitors and degraders of PD-L1” (Eur J Med Chem, 2020)
# Activity calls are given as the source filed them. The calls are words filed in the database; no cut-off is given here.
# Molecular target: Programmed cell death protein 1/Programmed cell death 1 ligand 1 (Homo sapiens, UniProt Q9NZQ7)
# Assay: Inhibition of PD-1/PDL1 protein-protein interaction (unknown origin) by HTRF assay
# Format: protein-complex assay
# Conditions: not given
# Sequence of Programmed cell death protein 1/Programmed cell death 1 ligand 1 (Q15116 whole entry): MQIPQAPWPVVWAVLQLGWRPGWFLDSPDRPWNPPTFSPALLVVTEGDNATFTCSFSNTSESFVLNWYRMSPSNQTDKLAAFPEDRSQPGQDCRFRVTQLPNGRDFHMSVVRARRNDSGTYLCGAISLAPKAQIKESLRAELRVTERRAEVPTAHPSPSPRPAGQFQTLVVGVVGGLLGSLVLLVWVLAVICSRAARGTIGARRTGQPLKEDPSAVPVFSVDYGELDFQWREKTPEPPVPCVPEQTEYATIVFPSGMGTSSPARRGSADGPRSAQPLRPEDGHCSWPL
# Sequence of Programmed cell death protein 1/Programmed cell death 1 ligand 1 (Q9NZQ7 whole entry): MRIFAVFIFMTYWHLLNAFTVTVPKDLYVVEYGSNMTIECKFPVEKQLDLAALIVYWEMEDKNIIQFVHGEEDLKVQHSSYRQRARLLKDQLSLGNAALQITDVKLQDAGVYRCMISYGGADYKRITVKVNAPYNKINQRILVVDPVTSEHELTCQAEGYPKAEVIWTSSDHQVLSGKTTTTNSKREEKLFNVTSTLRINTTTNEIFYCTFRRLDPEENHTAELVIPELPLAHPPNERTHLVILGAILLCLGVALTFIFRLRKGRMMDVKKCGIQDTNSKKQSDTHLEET
row,Compound,IC50 [nM]
1,Cc1c(COc2cc(OCc3cccc(C#N)c3)c(CN3CCCCC3C(=O)NCCNC(=O)COCC(=O)Nc3cccc4c3C(=O)N(C3CCC(=O)NC3=O)C4=O)cc2Cl)cccc1-c1ccccc1 (configuration not stated),> 200
2,Cc1c(COc2cc(OCc3cccc(C#N)c3)c(CN3CCCCC3C(=O)NCCCCNC(=O)CCCC(=O)Nc3cccc4c3C(=O)N(C3CCC(=O)NC3=O)C4=O)cc2Cl)cccc1-c1ccccc1 (configuration not stated),121
3,Nc1cccc2c1C(=O)N(C1CCC(=O)NC1=O)C2=O (configuration not stated) [POMALIDOMIDE],> 10
4,Cc1c(COc2cc(OCc3cccc(C#N)c3)c(CN3CCCCC3C(=O)NCCCCCNc3cccc4c3C(=O)N(C3CCC(=O)NC3=O)C4=O)cc2Cl)cccc1-c1ccc2c(c1)OCCO2 (configuration not stated),193
5,Cc1c(COc2cc(OCc3cccc(C#N)c3)c(CN3CCCCC3C(=O)NCCNC(=O)CCC(=O)Nc3cccc4c3C(=O)N(C3CCC(=O)NC3=O)C4=O)cc2Cl)cccc1-c1ccccc1 (configuration not stated),98.8
6,Cc1c(COc2cc(OCc3cccc(C#N)c3)c(CN3CCCCC3C(=O)N3CCN(C(=O)CCCC(=O)Nc4cccc5c4C(=O)N(C4CCC(=O)NC4=O)C5=O)CC3)cc2Cl)cccc1-c1ccc2c(c1)OCCO2 (configuration not stated),39.2
7,Cc1c(COc2cc(OCc3cccc(C#N)c3)c(CN3CCCCC3C(=O)NCCCCCCNc3cccc4c3C(=O)N(C3CCC(=O)NC3=O)C4=O)cc2Cl)cccc1-c1ccccc1 (configuration not stated),> 200
8,Cc1c(COc2cc(OCc3cccc(C#N)c3)c(CN3CCCCC3C(=O)NCCCCNc3cccc4c3C(=O)N(C3CCC(=O)NC3=O)C4=O)cc2Cl)cccc1-c1ccccc1 (configuration not stated),52.8
9,Cc1c(COc2cc(OCc3cccc(C#N)c3)c(CN3CCCCC3C(=O)NCCCCCNC(=O)CCCC(=O)Nc3cccc4c3C(=O)N(C3CCC(=O)NC3=O)C4=O)cc2Cl)cccc1-c1ccccc1 (configuration not stated),> 200
10,Cc1c(COc2cc(OCc3cccc(C#N)c3)c(CN3CCCCC3C(=O)O)cc2Cl)cccc1-c1ccc2c(c1)OCCO2 (configuration not stated),56.6
11,Cc1c(COc2cc(OCc3cccc(C#N)c3)c(CN3CCCCC3C(=O)NCCNC(=O)CCCC(=O)Nc3ccc4c(c3)C(=O)N(C3CCC(=O)NC3=O)C4=O)cc2Cl)cccc1-c1ccc2c(c1)OCCO2 (configuration not stated),> 200
12,Cc1c(COc2cc(OCc3cccc(C#N)c3)c(CN3CCCCC3C(=O)NCCNc3cccc4c3C(=O)N(C3CCC(=O)NC3=O)C4=O)cc2Cl)cccc1-c1ccc2c(c1)OCCO2 (configuration not stated),144
13,Cc1c(COc2cc(OCc3cccc(C#N)c3)c(CN3CCCCC3C(=O)NCCNC(=O)CCCC(=O)Nc3cccc4c3C(=O)N(C3CCC(=O)NC3=O)C4=O)cc2Cl)cccc1-c1ccc2c(c1)OCCO2 (configuration not stated),> 200
14,Cc1c(COc2cc(OCc3cccc(C#N)c3)c(CN3CCCCC3C(=O)NCCNC(=O)COCC(=O)Nc3cccc4c3C(=O)N(C3CCC(=O)NC3=O)C4=O)cc2Cl)cccc1-c1ccc2c(c1)OCCO2 (configuration not stated),> 200
15,Cc1c(COc2ccc(CN3CCCCC3C(=O)NCCNC(=O)CCCC(=O)Nc3cccc4c3C(=O)N(C3CCC(=O)NC3=O)C4=O)cc2Br)cccc1-c1ccccc1 (configuration not stated),> 200

# Tested on: A549
# Assay: Antiproliferative activity against human A549 cells assessed as reduction in cell viability incubated for 48 hrs by CCK8 assay
# Format: functional, cell-based
# Conditions: A549, 48 h
row,Compound,IC50 [nM]
1,Cc1c(COc2cc(OCc3cccc(C#N)c3)c(CN3CCCCC3C(=O)N3CCN(C(=O)CCCC(=O)Nc4cccc5c4C(=O)N(C4CCC(=O)NC4=O)C5=O)CC3)cc2Cl)cccc1-c1ccc2c(c1)OCCO2 (configuration not stated),> 10000
2,Cc1c(COc2cc(OCc3cccc(C#N)c3)c(CN3CCCCC3C(=O)NCCCCNc3cccc4c3C(=O)N(C3CCC(=O)NC3=O)C4=O)cc2Cl)cccc1-c1ccccc1 (configuration not stated),8200

# Tested on: NCI-H1299
# Assay: Antiproliferative activity against human H1299 cells assessed as reduction in cell viability incubated for 48 hrs by CCK8 assay
# Format: functional, cell-based
# Conditions: NCI-H1299, 48 h
row,Compound,IC50 [nM]
1,Cc1c(COc2cc(OCc3cccc(C#N)c3)c(CN3CCCCC3C(=O)N3CCN(C(=O)CCCC(=O)Nc4cccc5c4C(=O)N(C4CCC(=O)NC4=O)C5=O)CC3)cc2Cl)cccc1-c1ccc2c(c1)OCCO2 (configuration not stated),> 10000
2,Cc1c(COc2cc(OCc3cccc(C#N)c3)c(CN3CCCCC3C(=O)NCCCCNc3cccc4c3C(=O)N(C3CCC(=O)NC3=O)C4=O)cc2Cl)cccc1-c1ccccc1 (configuration not stated),10500

# Tested on: B16-F10
# Assay: Antiproliferative activity against mouse B16-F10 cells assessed as reduction in cell viability incubated for 48 hrs by CCK8 assay
# Format: functional, cell-based
# Conditions: B16-F10, 48 h
row,Compound,IC50 [nM]
1,Cc1c(COc2cc(OCc3cccc(C#N)c3)c(CN3CCCCC3C(=O)N3CCN(C(=O)CCCC(=O)Nc4cccc5c4C(=O)N(C4CCC(=O)NC4=O)C5=O)CC3)cc2Cl)cccc1-c1ccc2c(c1)OCCO2 (configuration not stated),> 10000
2,Cc1c(COc2cc(OCc3cccc(C#N)c3)c(CN3CCCCC3C(=O)NCCCCNc3cccc4c3C(=O)N(C3CCC(=O)NC3=O)C4=O)cc2Cl)cccc1-c1ccccc1 (configuration not stated),> 10000

# Tested on: MDA-MB-231
# Assay: Antiproliferative activity against human MDA-MB-231 cells assessed as reduction in cell viability incubated for 48 hrs by CCK8 assay
# Format: functional, cell-based
# Conditions: MDA-MB-231, 48 h
row,Compound,IC50 [nM]
1,Cc1c(COc2cc(OCc3cccc(C#N)c3)c(CN3CCCCC3C(=O)N3CCN(C(=O)CCCC(=O)Nc4cccc5c4C(=O)N(C4CCC(=O)NC4=O)C5=O)CC3)cc2Cl)cccc1-c1ccc2c(c1)OCCO2 (configuration not stated),> 10000
2,Cc1c(COc2cc(OCc3cccc(C#N)c3)c(CN3CCCCC3C(=O)NCCCCNc3cccc4c3C(=O)N(C3CCC(=O)NC3=O)C4=O)cc2Cl)cccc1-c1ccccc1 (configuration not stated),> 10000

# Tested on: Jurkat
# Assay: Antiproliferative activity against human jurkat cells assessed as reduction in cell viability incubated for 48 hrs by CCK8 assay
# Format: functional, cell-based
# Conditions: not given
row,Compound,IC50 [nM]
1,Cc1c(COc2cc(OCc3cccc(C#N)c3)c(CN3CCCCC3C(=O)N3CCN(C(=O)CCCC(=O)Nc4cccc5c4C(=O)N(C4CCC(=O)NC4=O)C5=O)CC3)cc2Cl)cccc1-c1ccc2c(c1)OCCO2 (configuration not stated),> 10000
2,Cc1c(COc2cc(OCc3cccc(C#N)c3)c(CN3CCCCC3C(=O)NCCCCNc3cccc4c3C(=O)N(C3CCC(=O)NC3=O)C4=O)cc2Cl)cccc1-c1ccccc1 (configuration not stated),> 10000

# Organism: Homo sapiens
# Assay: Inhibition of PD1/PDL1 protein-protein interaction in human PBMC-derived CD3-positive T cells co-cultured with human Hep3B cells expressing human PDL1/OS-8 assessed as increase in IFN-gamma secretion at 3.3 uM measured after 72 hrs by ELISA relative to control
# Set-up: scale not given: the % may be the effect or the level left
# Conditions: not given
row,Compound,Activity [%]
1,Cc1c(COc2cc(OCc3cccc(C#N)c3)c(CN3CCCCC3C(=O)N3CCN(C(=O)CCCC(=O)Nc4cccc5c4C(=O)N(C4CCC(=O)NC4=O)C5=O)CC3)cc2Cl)cccc1-c1ccc2c(c1)OCCO2 (configuration not stated),215

# Organism: Homo sapiens
# Assay: Inhibition of PD1/PDL1 protein-protein interaction in human PBMC-derived CD3-positive T cells co-cultured with human Hep3B cells expressing human PDL1/OS-8 assessed as increase in IFN-gamma secretion measured after 72 hrs by ELISA relative to control
# Conditions: dose 3.3-10 µM
row,Compound,Activity
1,Cc1c(COc2cc(OCc3cccc(C#N)c3)c(CN3CCCCC3C(=O)N3CCN(C(=O)CCCC(=O)Nc4cccc5c4C(=O)N(C4CCC(=O)NC4=O)C5=O)CC3)cc2Cl)cccc1-c1ccc2c(c1)OCCO2 (configuration not stated),Dose-dependent effect

# Molecular target: T1, Protein cereblon/Programmed cell death 1 ligand 1 (Homo sapiens) (UniProt Q9NZQ7+Q96SW2)
# Assay: Protac like activity at CRBN/PD-L1 in human MDA-MB-231 cells assessed as reduction in cell surface PD-L1 expression at 10 uM measured after 24 hrs by flow cytometry relative to control
# Format: functional, cell-based
# Set-up: scale not given: the % may be the effect or the level left
# Conditions: not given
# T1 sequence (Q96SW2 whole entry, looked up): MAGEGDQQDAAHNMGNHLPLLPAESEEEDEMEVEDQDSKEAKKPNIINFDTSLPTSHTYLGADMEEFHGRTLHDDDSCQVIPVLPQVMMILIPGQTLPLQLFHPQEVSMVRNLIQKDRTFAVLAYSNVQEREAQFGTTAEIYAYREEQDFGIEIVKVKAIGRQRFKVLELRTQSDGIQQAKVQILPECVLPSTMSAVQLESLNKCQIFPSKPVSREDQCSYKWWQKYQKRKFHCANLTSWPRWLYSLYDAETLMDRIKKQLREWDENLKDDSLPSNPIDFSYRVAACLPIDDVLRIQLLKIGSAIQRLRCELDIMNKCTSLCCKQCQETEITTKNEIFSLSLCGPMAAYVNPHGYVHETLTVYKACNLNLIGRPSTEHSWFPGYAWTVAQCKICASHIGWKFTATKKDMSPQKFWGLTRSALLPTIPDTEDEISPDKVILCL
# T1 sequence (Q9NZQ7 whole entry, looked up): as the sequence (Q9NZQ7 whole entry) above
row,Compound,Activity [%]
1,Cc1c(COc2cc(OCc3cccc(C#N)c3)c(CN3CCCCC3C(=O)N3CCN(C(=O)CCCC(=O)Nc4cccc5c4C(=O)N(C4CCC(=O)NC4=O)C5=O)CC3)cc2Cl)cccc1-c1ccc2c(c1)OCCO2 (configuration not stated),14

# Molecular target: T1, Protein cereblon/Programmed cell death 1 ligand 1 (Homo sapiens)
# Assay: Protac like activity at CRBN/PD-L1 in human MDA-MB-231 cells assessed as reduction in cell surface PD-L1 expression at 1 uM measured after 24 hrs by Western blotting analysis relative to control
# Format: functional, cell-based
# Set-up: scale not given: the % may be the effect or the level left
# Conditions: not given
row,Compound,Activity [%]
1,Cc1c(COc2cc(OCc3cccc(C#N)c3)c(CN3CCCCC3C(=O)N3CCN(C(=O)CCCC(=O)Nc4cccc5c4C(=O)N(C4CCC(=O)NC4=O)C5=O)CC3)cc2Cl)cccc1-c1ccc2c(c1)OCCO2 (configuration not stated),21

# Molecular target: T1, Protein cereblon/Programmed cell death 1 ligand 1 (Homo sapiens)
# Assay: Protac like activity at CRBN/PD-L1 in human MDA-MB-231 cells assessed as reduction in cell surface PD-L1 expression at 10 uM measured after 24 hrs by Western blotting analysis relative to control
# Format: functional, cell-based
# Set-up: scale not given: the % may be the effect or the level left
# Conditions: not given
row,Compound,Activity [%]
1,Cc1c(COc2cc(OCc3cccc(C#N)c3)c(CN3CCCCC3C(=O)N3CCN(C(=O)CCCC(=O)Nc4cccc5c4C(=O)N(C4CCC(=O)NC4=O)C5=O)CC3)cc2Cl)cccc1-c1ccc2c(c1)OCCO2 (configuration not stated),35

# Molecular target: T1, Protein cereblon/Programmed cell death 1 ligand 1 (Homo sapiens)
# Assay: Protac like activity at CRBN/PD-L1 in human MDA-MB-231 cells assessed as reduction in cell surface PD-L1 expression at 1 to 10 uM in presence of bafilomycin lysosomal measured after 24 hrs by Western blotting analysis relative to control
# Format: functional, cell-based
# Conditions: dose 1-10 µM
row,Compound,Activity
1,Cc1c(COc2cc(OCc3cccc(C#N)c3)c(CN3CCCCC3C(=O)N3CCN(C(=O)CCCC(=O)Nc4cccc5c4C(=O)N(C4CCC(=O)NC4=O)C5=O)CC3)cc2Cl)cccc1-c1ccc2c(c1)OCCO2 (configuration not stated),inactive

# Molecular target: T1, Protein cereblon/Programmed cell death 1 ligand 1 (Homo sapiens)
# Assay: Protac like activity at CRBN/PD-L1 in human MDA-MB-231 cells assessed as reduction in cell surface PD-L1 expression at 1 to 10 uM in presence of MG132 proteasome inhibitor measured after 24 hrs by Western blotting analysis relative to control
# Format: functional, cell-based
# Conditions: dose 1-10 µM
row,Compound,Activity
1,Cc1c(COc2cc(OCc3cccc(C#N)c3)c(CN3CCCCC3C(=O)N3CCN(C(=O)CCCC(=O)Nc4cccc5c4C(=O)N(C4CCC(=O)NC4=O)C5=O)CC3)cc2Cl)cccc1-c1ccc2c(c1)OCCO2 (configuration not stated),Active
